Legend:
hNPFF1 = biological target: T1, hNPFF1 (Homo sapiens, UniProt Q9GZQ6); assay: Receptor binding assay with [3H]-FFRFamide on CHO cell membranes expressing SF-hNPFFR1; settings: [3H]-FFRF-NH2 radioligand, mean of at least two experiments; for Ki: read-out: Ki NPFF1
T1 construct: The cDNA encoding the full-length human NPFFR1 and human NPFFR2; expressed in transfected cells
From the text: (§1) The cDNA encoding the full-length human NPFFR1 and human NPFFR2 were subcloned into the pcDNA3 expression vector (Invitrogen, Cergy Pontoise, France) using standard molecular biology methods. A sequence encoding a signal sequence and a Flag epitope was fused to the 5' coding sequence of both hNPFFR1 and hNPFFR2 cDNA according to (Guan et al., 1992) resulting in a SF-hNPFFR1 and SF-hNPFFR2 constructs. These contructs were stably transfected into CHO cells.
(§2) Membranes from CHO cells stably expressing SF-hNPFFR1 or SF-hNPFFR2 were prepared as described (Becker et al., 1999). SF-hNPFFR1 or SF-hNPFFR2 membranes (10µg) were incubated for 30 min at 25 °C in a final volume of 0.5 ml containing 50 mM HEPES pH 7.4, 1 mM CaCl2, 1 mM MgCl2, 0.1% bovine serum albumin, 10 nM and 3 nM [^3H]-FFRFamide (CEA, Paris; specific activity, 13,6 Ci/mmol) for […], respectively and the ligands to be tested. Non-specific binding was determined in presence of 1 µM neuropeptide FF for SF-hNPFFR2 and 1 µM neuropeptide VF for SF -hNPFFR1. Typical total and nonspecific binding were 1200 and 200 dpm, respectively for SF-hNPFFR1 and SF-hNPFFR2. Incubation mixtures were rapidly filtered and washed with 50 mM HEPES pH 7.4, 1 mM CaCl2, 1 mM MgCl2, on 96 wells GF/B unifilter (Perkin Elmer). Unifilter plates where then dryied for 1hr at 65°C. Bound radioactivity was determined by scintillation counting with 30 µl of scintillation cocktail (O-scint, Perkin Elmer) per well on a Topcount scintillation apparatus (Perkin Elmer).

hNPFF2 = biological target: T2, hNPFF2 (Homo sapiens, UniProt Q9Y5X5); assay: Receptor binding assay with [3H]-FFRFamide on CHO cell membranes expressing SF-hNPFFR2; settings: [3H]-FFRF-NH2 radioligand, mean of at least two experiments; for Ki: read-out: Ki NPFF2
T2 construct: The cDNA encoding the full-length human NPFFR1 and human NPFFR2; expressed in transfected cells
T2 sequence (Q9Y5X5 whole entry): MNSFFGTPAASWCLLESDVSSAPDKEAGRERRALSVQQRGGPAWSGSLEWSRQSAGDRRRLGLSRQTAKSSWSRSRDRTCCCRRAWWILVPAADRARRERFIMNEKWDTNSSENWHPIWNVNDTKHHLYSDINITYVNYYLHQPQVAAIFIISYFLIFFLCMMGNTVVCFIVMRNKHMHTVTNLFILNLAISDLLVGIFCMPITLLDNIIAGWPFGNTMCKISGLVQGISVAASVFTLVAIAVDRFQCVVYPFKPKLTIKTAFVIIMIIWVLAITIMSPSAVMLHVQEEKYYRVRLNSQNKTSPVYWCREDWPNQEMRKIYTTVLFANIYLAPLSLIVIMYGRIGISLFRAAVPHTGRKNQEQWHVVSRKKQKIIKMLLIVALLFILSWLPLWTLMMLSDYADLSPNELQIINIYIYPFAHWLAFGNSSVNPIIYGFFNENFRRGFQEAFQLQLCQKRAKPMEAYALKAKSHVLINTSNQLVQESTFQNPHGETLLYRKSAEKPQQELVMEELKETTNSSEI
From the text: as §1, §2

T1 sequence (Q9GZQ6 whole entry): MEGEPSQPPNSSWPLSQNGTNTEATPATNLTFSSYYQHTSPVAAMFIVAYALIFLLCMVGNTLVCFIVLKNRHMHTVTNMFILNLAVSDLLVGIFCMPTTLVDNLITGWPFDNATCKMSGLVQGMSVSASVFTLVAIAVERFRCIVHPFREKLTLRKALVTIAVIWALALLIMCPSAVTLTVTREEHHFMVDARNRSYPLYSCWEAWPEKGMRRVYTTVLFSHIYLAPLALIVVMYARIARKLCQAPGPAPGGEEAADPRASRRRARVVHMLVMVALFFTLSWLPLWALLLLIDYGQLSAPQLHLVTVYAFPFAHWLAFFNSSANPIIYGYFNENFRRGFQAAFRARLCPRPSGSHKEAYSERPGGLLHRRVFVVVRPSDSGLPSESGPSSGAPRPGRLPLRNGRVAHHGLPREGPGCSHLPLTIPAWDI

Row | SMILES | inhibition at 0.5 µM (hNPFF1) [%] | inhibition at 5 µM (hNPFF1) [%] | inhibition at 0.5 µM (hNPFF2) [%] | inhibition at 5 µM (hNPFF2) [%] | Ki (hNPFF1) [nM] | Ki (hNPFF2) [nM]
1 | O=C(N[C@H](CCCN1CCc2ccccc2C1)C(=O)NCCc1ccccc1)c1ccccc1-c1ccccc1 [Compound 25, (2R)-N-(2-phenylethyl)-2-[(2-phenylphenyl)formamido]-5-(1,2,3,4-tetrahydroisoquinolin-2-yl)pentanamide] | 14 ± 1 | 51 ± 14 | 0 | 16 ± 5 | – | –
2 | O=C(N[C@H](CCCN1CCCCC1)C(=O)NCCc1ccccc1)c1ccccc1-c1ccccc1 [Compound 27, (2R)-N-(2-phenylethyl)-2-[(2-phenylphenyl)formamido]-5-(piperidin-1-yl)pentanamide] | – | – | 0 | 13 ± 8 | 179 ± 64 | –
3 | O=C(N[C@@H](CCCN1CCCCC1)C(=O)NCCCc1ccccc1)c1ccccc1-c1ccccc1 [Compound 28, (2S)-2-[(2-phenylphenyl)formamido]-N-(3-phenylpropyl)-5-(piperidin-1-yl)pentanamide] | 16 ± 25 | 41 ± 2 | 0 | 17 | – | –
4 | COc1ccc(-c2ccccc2C(=O)N[C@@H](CCCN2CCCCC2)C(=O)NCCCc2ccccc2)cc1 [Compound 29, (2S)-2-{[2-(4-methoxyphenyl)phenyl]formamido}-N-(3-phenylpropyl)-5-(piperidin-1-yl)pentanamide] | – | – | 0 | 23 ± 5 | 170 ± 70 | –
5 | O=C(N[C@@H](CCCN1CCC(Cc2ccccc2)CC1)C(=O)NCCc1ccccc1)c1ccccc1-c1ccccc1 [Compound 32, (2S)-5-(4-benzylpiperidin-1-yl)-N-(2-phenylethyl)-2-[(2-phenylphenyl)formamido]pentanamide] | – | – | – | – | 400 | 34
6 | CC(=O)N1CCN(CCC[C@H](NC(=O)c2ccccc2-c2ccccc2)C(=O)NCCc2ccccc2)CC1 [Compound 35, (2S)-5-(4-acetylpiperazin-1-yl)-N-(2-phenylethyl)-2-[(2-phenylphenyl)formamido]pentanamide] | – | – | 0 | 0 | 319 ± 13 | –

Further lines, results first:

Row | inhibition at 0.5 µM (hNPFF1) [%] | inhibition at 5 µM (hNPFF1) [%] | inhibition at 0.5 µM (hNPFF2) [%] | inhibition at 5 µM (hNPFF2) [%] | Ki (hNPFF1) [nM] | Ki (hNPFF2) [nM] | SMILES
7 | – | – | – | – | 64 ± 32 | 76 ± 18 | COc1ccc(-c2ccccc2C(=O)N[C@@H](CCCN2CCCCCC2)C(=O)NCCCc2ccccc2)cc1 [Compound 30, (2S)-5-(azepan-1-yl)-2-{[2-(4-methoxyphenyl)phenyl]formamido}-N-(3-phenylpropyl)pentanamide]
8 | – | – | 0 | 45 ± 7 | 485 ± 35 | – | O=C(N[C@@H](CCCN1CCC(c2ccccc2)CC1)C(=O)NCCc1ccccc1)c1ccccc1-c1ccccc1 [Compound 31, (2S)-N-(2-phenylethyl)-2-[(2-phenylphenyl)formamido]-5-(4-phenylpiperidin-1-yl)pentanamide]
9 | – | – | 13 ± 11 | 55 ± 15 | 71 ± 11 | – | O=C(N[C@@H](CCCN1CCC(N2CCCCC2)CC1)C(=O)NCCc1ccccc1)c1ccccc1-c1ccccc1 [Compound 33, (2S)-N-(2-phenylethyl)-2-[(2-phenylphenyl)formamido]-5-[4-(piperidin-1-yl)piperidin-1-yl]pentanamide]
10 | – | – | 0 | 12 ± 5 | 232 ± 17 | – | CN1CCN(CCC[C@H](NC(=O)c2ccccc2-c2ccccc2)C(=O)NCCc2ccccc2)CC1 [Compound 34, (2S)-5-(4-methylpiperazin-1-yl)-N-(2-phenylethyl)-2-[(2-phenylphenyl)formamido]pentanamide]
11 | 10 ± 3 | 25 ± 10 | 2 | 25 ± 2 | – | – | O=C(N[C@@H](CCCN1CCOCC1)C(=O)NCCc1ccccc1)c1ccccc1-c1ccccc1 [Compound 36, (2S)-5-(morpholin-4-yl)-N-(2-phenylethyl)-2-[(2-phenylphenyl)formamido]pentanamide]

From patent EP2669276A1 (Université de Strasbourg, priority 2012, dated 2013)
